Test [1] has as its system classical complement pathway. Kind of test: In vitro haemolysis assay (inhibition of classical complement pathway). The test is classed as cell-based, human. The settings on record: Table 3; human serum, sensitized sheep red blood cells; read-out: IC50[nM], in vitro analysis of inhibition of hemolysis. A digest of the protocol:
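Serially diluted compound (9 points) was preincubated 15 min at room temperature with diluted human serum, titrated per batch to give 70-90% maximal haemolysis, in Tris/casein buffer pH 7.4 with Mg2+/Ca2+. Antibody-sensitized sheep erythrocytes were then added for 30 min at 37° C, and the reaction was stopped with EDTA. Haemolysis was read at A405, with IC50 from 4PL fit.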

For test [2], the target named is T1, Human C3 (Homo sapiens, UniProt P01024).
T1 construct: purchased Complement tech A1 13c (so in the source)
The experiment in a line: Affinity measurement by surface plasmon resonance (SPR) with immobilized C3. The test is classed as binding. The following applies: Table 7; immobilized C3, 25° C., pH 7.4. The procedure:
Surface plasmon resonance (SPR) was used to characterize peptides with respect to their binding affinity (Kd) for C3. Human C3 (Complement tech cat #A1 13c) was immobilised on individual flow cells of CM5 sensor chips (GE Healthcare) using standard amine coupling to a density of approximately 3000 resonance units (RU) in a buffer consisting of 10 mM phosphate pH 7.4, 150 mM NaCl, 0.05% Tween20. For interaction experiments a multi-cycle experiment approach was used and performed using either a Biacore™ T200 or Biacore™ X100 instrument (GE Healthcare) at 25° C. Peptides were injected in increasing concentration series (5-8 different concentrations) for 60-120 s at a flow rate of 30 μL/min in a buffer consisting of 10 mM Tris buffer at pH 7.4, with 150 mM NaCl and 0.05% Tween20. This was followed by a dissociation period for up to 10 min. […] Sensorgrams were double-referenced (reference surface, blanks) prior to analysis of the kinetic profiles by globally fitting data to a 1:1 Langmuir binding model to obtain association and dissociation rates for calculation of the equilibrium dissociation constant Kd. Each peptide was tested at in at least 2 independent experiments.
(SPR reads the build-up and loss of mass on a sensor chip optically.)

Test [3] deals with T2, Human C3 (human, UniProt P01024 23-1663).
T2 construct: In SPR the bought human C3 was immobilised on CM5 chips by amine coupling; In the haemolysis assay the C3 is that of diluted human serum; also called complement C3
T2 sequence (P01024 23-1663 limits assumed): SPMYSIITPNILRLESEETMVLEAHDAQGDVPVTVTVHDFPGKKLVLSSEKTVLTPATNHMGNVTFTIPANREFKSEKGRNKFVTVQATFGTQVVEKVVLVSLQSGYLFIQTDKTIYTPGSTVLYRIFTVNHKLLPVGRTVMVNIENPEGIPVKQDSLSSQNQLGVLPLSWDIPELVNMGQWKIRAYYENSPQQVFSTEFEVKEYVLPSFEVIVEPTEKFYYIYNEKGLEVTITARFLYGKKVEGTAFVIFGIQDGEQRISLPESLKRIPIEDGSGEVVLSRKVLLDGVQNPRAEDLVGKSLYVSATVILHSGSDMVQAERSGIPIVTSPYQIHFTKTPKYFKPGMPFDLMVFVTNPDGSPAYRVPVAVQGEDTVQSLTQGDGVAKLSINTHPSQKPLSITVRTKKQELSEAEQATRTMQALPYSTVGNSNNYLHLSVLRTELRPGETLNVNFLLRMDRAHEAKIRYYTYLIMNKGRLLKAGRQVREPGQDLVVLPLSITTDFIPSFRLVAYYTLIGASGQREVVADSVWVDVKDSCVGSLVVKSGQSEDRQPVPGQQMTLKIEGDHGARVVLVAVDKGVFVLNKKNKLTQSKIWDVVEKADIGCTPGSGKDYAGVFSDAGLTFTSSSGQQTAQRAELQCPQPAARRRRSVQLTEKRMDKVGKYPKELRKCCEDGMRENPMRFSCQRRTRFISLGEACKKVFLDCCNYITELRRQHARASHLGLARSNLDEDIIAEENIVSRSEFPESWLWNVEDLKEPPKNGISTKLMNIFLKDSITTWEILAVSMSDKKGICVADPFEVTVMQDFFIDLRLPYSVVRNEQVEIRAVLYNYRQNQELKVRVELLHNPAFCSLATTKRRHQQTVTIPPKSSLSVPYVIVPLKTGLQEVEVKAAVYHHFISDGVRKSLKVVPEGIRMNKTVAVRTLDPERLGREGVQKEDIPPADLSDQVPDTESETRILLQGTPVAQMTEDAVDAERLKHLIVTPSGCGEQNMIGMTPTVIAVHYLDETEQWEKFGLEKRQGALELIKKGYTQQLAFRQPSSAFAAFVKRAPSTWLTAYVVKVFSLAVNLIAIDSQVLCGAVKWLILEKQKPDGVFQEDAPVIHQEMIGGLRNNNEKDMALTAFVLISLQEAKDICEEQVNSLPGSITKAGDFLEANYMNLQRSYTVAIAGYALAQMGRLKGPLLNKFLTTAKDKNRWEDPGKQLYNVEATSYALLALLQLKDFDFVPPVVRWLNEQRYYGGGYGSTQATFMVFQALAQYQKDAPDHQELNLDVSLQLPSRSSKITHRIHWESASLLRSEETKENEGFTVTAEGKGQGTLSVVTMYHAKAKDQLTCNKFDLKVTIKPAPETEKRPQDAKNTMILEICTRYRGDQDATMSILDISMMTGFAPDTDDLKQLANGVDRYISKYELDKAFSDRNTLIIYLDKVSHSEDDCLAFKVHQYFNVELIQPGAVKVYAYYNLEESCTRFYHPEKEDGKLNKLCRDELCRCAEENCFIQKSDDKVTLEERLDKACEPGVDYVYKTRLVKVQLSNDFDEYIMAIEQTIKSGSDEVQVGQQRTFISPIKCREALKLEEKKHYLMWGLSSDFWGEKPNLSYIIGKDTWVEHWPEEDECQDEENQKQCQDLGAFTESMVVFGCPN
The experiment in a line: SPR, C3 immobilised. A digest of the protocol:
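Peptide series (5-8 concentrations, 60-120 s, up to 10 min dissociation, Tris pH 7.4 running buffer) flowed over ~3000 RU amine-coupled human C3; MgCl₂ regeneration; at least two independent runs.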

The target in test [4] is T2, Human C3. The experiment in a line: cell-based or functional assay.

Starred links: 1 amine or outer side, 2 acyl side, 3 side chain; linkers in the order of their positions; H or OH if unused. Positions of bridges follow the written chain, without caps; N, C: chain ends. Non-standard residues stand in square brackets, D forms with d. Residues, ends and D or L forms follow the SMILES beside them. Groups on a side chain read outwards from the residue. *: point of attachment. Trp(1-Me) = Cn1cc(C[C@H](N)C(=O)O)c2ccccc21; Abu(4-yl) = O=C([C@H](CC[*:3])N[*:1])[*:2]; C18 diacid = O=C(O)CCCCCCCCCCCCCCCCC(=O)*; γGlu = O=C(O)[C@H](CCC(=O)[*:2])N[*:1]; AEEA = NCCOCCOCC(=O)O; Sar = CNCC(=O)O Where only a bound is given, the exact number is not on record here.

As a reminder, the IC50 is the concentration that gives 50% inhibition. As usually defined, the Kd is the equilibrium constant for the complex coming apart.

In the case of `CC[C@H](C)[C@@H]1NC(=O)[C@@H](NC(=O)[C@H](Cc2ccccc2)NC(=O)[C@H](CCC(=O)O)NC(C)=O)CSCC[C@@H](C(=O)N[C@@H](CCC(=O)O)C(=O)NCC(=O)N[C@@H](CCC(=O)O)C(=O)N[C@@H](CCCCNC(=O)CC[C@H](NC(=O)CNC(=O)CC[C@H](NC(=O)CCCCCCCCCCCCCCCCC(=O)O)C(=O)O)C(=O)O)C(N)=O)NC(=O)[C@H](CCCNC(=N)N)NC(=O)[C@H](Cc2c[nH]cn2)NC(=O)[C@H](CCC(=O)O)NC(=O)CNC(=O)[C@H](Cc2c[nH]c3ccccc23)NC(=O)[C@H](CC(=O)O)NC(=O)[C@H](CCC(N)=O)NC(=O)[C@H](Cc2cn(C)c3ccccc23)NC1=O` [Compound 161, Ac-EFA(1)I[1-Me-Trp]QDWGEHRhC(1)EGE-K([17-carboxy-heptadecanoyl][γGlu]G[γGlu])-NH2] (Ac-EFCI[Trp(1-Me)]QDWGEHR[Abu(4-yl)]EGEK([γGlu-Gly-γGlu-C18 diacid])-NH2; thioether 3-13), in test [1], the IC50 is under 100 nM. This molecule also yielded a Kd on Human C3 [2] of 3.4 nM.

In the case of `CC[C@H](C)[C@@H]1NC(=O)[C@@H](NC(=O)[C@H](Cc2ccccc2)NC(=O)[C@H](CCC(=O)O)NC(=O)[C@H](CO)NC(C)=O)CCSC[C@@H](C(=O)N(C)CC(=O)N[C@@H](CCC(=O)O)C(=O)NCC(=O)N[C@@H](CCC(=O)O)C(=O)NCCOCCOCC(=O)NCCOCCOCC(=O)N[C@@H](CCCCNC(=O)CC[C@H](NC(=O)CNC(=O)CC[C@H](NC(=O)CCCCCCCCCCCCCCCCC(=O)O)C(=O)O)C(=O)O)C(N)=O)NC(=O)[C@H](CCCNC(=N)N)NC(=O)[C@H](Cc2c[nH]cn2)NC(=O)[C@H](CCC(=O)O)NC(=O)CNC(=O)[C@H](Cc2c[nH]c3ccccc23)NC(=O)[C@H](CC(=O)O)NC(=O)[C@H](CCC(N)=O)NC(=O)[C@H](Cc2cn(C)c3ccccc23)NC1=O` [Compound 152] (Ac-SEF[Abu(4-yl)]I[Trp(1-Me)]QDWGEHRC[Sar]EGE[AEEA][AEEA]K([γGlu-Gly-γGlu-C18 diacid])-NH2; thioether 4-14), in test [1], the IC50 is under 100 nM. Also, the Kd at Human C3 [2] came out at 16 nM.

With `CC[C@H](C)[C@@H]1NC(=O)[C@@H](NC(=O)CN(C)C(=O)[C@H](CCC(=O)O)NC(=O)[C@H](CO)NC(C)=O)CSSC[C@@H](C(=O)N[C@H](C(=O)N[C@@H](CCC(=O)O)C(=O)N[C@@H](C)C(N)=O)[C@@H](C)O)NC(=O)[C@H](CCCNC(=N)N)NC(=O)[C@H](Cc2c[nH]cn2)NC(=O)[C@H](CCC(=O)O)NC(=O)CNC(=O)[C@H](Cc2c[nH]c3ccccc23)NC(=O)[C@H](CC(=O)O)NC(=O)[C@H](CCC(N)=O)NC(=O)[C@H](Cc2cn(C)c3ccccc23)NC1=O` [Compound 82] (Ac-SE[Sar]CI[Trp(1-Me)]QDWGEHRCTEA-NH2; disulfide 4-14), the IC50 in test [1] is under 100 nM. Moreover, the Kd at Human C3 [2] was 5.4 nM.

As for `CC[C@H](C)[C@@H]1NC(=O)[C@@H](NC(=O)[C@H](Cc2ccccc2)NC(=O)[C@H](CCC(=O)O)NC(=O)[C@H](CO)NC(C)=O)CSSC[C@@H](C(=O)N(C)CC(=O)N[C@@H](CCC(=O)O)C(=O)N[C@@H](C)C(N)=O)NC(=O)[C@H](CCCNC(=N)N)NC(=O)[C@H](Cc2c[nH]cn2)NC(=O)[C@H](CCC(=O)O)NC(=O)CNC(=O)[C@H](Cc2c[nH]c3ccccc23)NC(=O)[C@H](CC(=O)O)NC(=O)[C@H](CCC(N)=O)NC(=O)[C@H](Cc2cn(C)c3ccccc23)NC1=O` [Compound 75] (Ac-SEFCI[Trp(1-Me)]QDWGEHRC[Sar]EA-NH2; disulfide 4-14), the IC50 in test [1] is under 100 nM. Moreover, on Human C3 [2], binding was characterised by a dissociation constant (Kd) of 1.5 nM.

Take `CC[C@H](C)[C@@H]1NC(=O)[C@@H](NC(=O)[C@H](Cc2ccccc2)NC(=O)[C@H](CCC(=O)O)NC(=O)[C@H](CO)NC(C)=O)CSSC[C@@H](C(=O)N(C)CC(=O)N[C@@H](CCC(=O)O)C(=O)NCC(=O)N[C@@H](C)C(=O)N[C@@H](CCCCNC(=O)COCCOCCNC(=O)CC[C@H](NC(=O)COCCOCCNC(=O)CNC(=O)CC[C@H](NC(=O)CCCCCCCCCCCCCCCCC(=O)O)C(=O)O)C(=O)O)C(N)=O)NC(=O)[C@H](CCCNC(=N)N)NC(=O)[C@H](Cc2c[nH]cn2)NC(=O)[C@H](CCC(=O)O)NC(=O)CNC(=O)[C@H](Cc2c[nH]c3ccccc23)NC(=O)[C@H](CCC(=O)O)NC(=O)[C@H](CCC(N)=O)NC(=O)[C@H](Cc2cn(C)c3ccccc23)NC1=O` [Compound 120] (Ac-SEFCI[Trp(1-Me)]QEWGEHRC[Sar]EGAK([AEEA-γGlu-AEEA-Gly-γGlu-C18 diacid])-NH2; disulfide 4-14): in test [1], the IC50 is under 250 nM. The same molecule came in with a Kd at Human C3 [2] of 28 nM.

`CC[C@H](C)[C@@H]1NC(=O)[C@@H](NC(=O)[C@H](Cc2ccc(O)cc2)NC(=O)[C@H](CCC(=O)O)NC(=O)[C@H](CO)NC(C)=O)CSSC[C@@H](C(=O)N(C)CC(=O)N[C@@H](CCC(=O)O)C(=O)N[C@@H](CCCCN)C(=O)N[C@@H](CCC(=O)N[C@@H](C)C(=O)N[C@@H](CCCCNC(=O)COCCOCCNC(=O)CC[C@H](NC(=O)COCCOCCNC(=O)CNC(=O)CC[C@H](NC(=O)CCCCCCCCCCCCCCCCC(=O)O)C(=O)O)C(=O)O)C(N)=O)C(=O)O)NC(=O)[C@H](CCCNC(=N)N)NC(=O)[C@H](Cc2c[nH]cn2)NC(=O)[C@H](CCC(=O)O)NC(=O)CN(C)C(=O)[C@H](Cc2c[nH]c3ccccc23)NC(=O)[C@H](CCC(=O)O)NC(=O)[C@H](CCC(N)=O)NC(=O)[C@H](Cc2cn(C)c3ccccc23)NC1=O` [Compound 121, Ac-SEYC(1)I[1-Me-Trp]QEW[Sar]EHRC(1)[Sar]K[γGlu]A-K([17-carboxy-heptadecanoyl][γGlu]G[Peg3][γGlu][Peg3])-NH2] (Ac-SEYCI[Trp(1-Me)]QEW[Sar]EHRC[Sar]EK[γGlu]AK([AEEA-γGlu-AEEA-Gly-γGlu-C18 diacid])-NH2; disulfide 4-14): the IC50 in test [1] was under 250 nM. On Human C3 [2], this molecule gave a Kd of 30 nM.

B1: Compound 81 (peptide)
peptide: Ac-SE[Sar]CI[Trp(1-Me)]QDWGEHRC[Sar]EA-NH2
modifications: disulfide 4-14
SMILES: CC[C@H](C)[C@@H]1NC(=O)[C@@H](NC(=O)CN(C)C(=O)[C@H](CCC(=O)O)NC(=O)[C@H](CO)NC(C)=O)CSSC[C@@H](C(=O)N(C)CC(=O)N[C@@H](CCC(=O)O)C(=O)N[C@@H](C)C(N)=O)NC(=O)[C@H](CCCNC(=N)N)NC(=O)[C@H](Cc2c[nH]cn2)NC(=O)[C@H](CCC(=O)O)NC(=O)CNC(=O)[C@H](Cc2c[nH]c3ccccc23)NC(=O)[C@H](CC(=O)O)NC(=O)[C@H](CCC(N)=O)NC(=O)[C@H](Cc2cn(C)c3ccccc23)NC1=O
On to B1, for which binding with Human C3 [3] was put at a Kd of 9.7 nM. Further, in the test with Human C3 [4], the “IC50[nM], inhibition of hemolysis” value was under 100 nM.

B2: Compound 86 (peptide)
peptide: Ac-SEFCI[Trp(1-Me)]QDWGEHKC[Sar]EA-NH2
modifications: disulfide 4-14
SMILES: CC[C@H](C)[C@@H]1NC(=O)[C@@H](NC(=O)[C@H](Cc2ccccc2)NC(=O)[C@H](CCC(=O)O)NC(=O)[C@H](CO)NC(C)=O)CSSC[C@@H](C(=O)N(C)CC(=O)N[C@@H](CCC(=O)O)C(=O)N[C@@H](C)C(N)=O)NC(=O)[C@H](CCCCN)NC(=O)[C@H](Cc2c[nH]cn2)NC(=O)[C@H](CCC(=O)O)NC(=O)CNC(=O)[C@H](Cc2c[nH]c3ccccc23)NC(=O)[C@H](CC(=O)O)NC(=O)[C@H](CCC(N)=O)NC(=O)[C@H](Cc2cn(C)c3ccccc23)NC1=O
B2: in the test with Human C3 [3], binding was characterised by a dissociation constant (Kd) of 2.6 nM. Further, in the test with Human C3 [4], the “IC50[nM], inhibition of hemolysis” value was under 100 nM.

B3: Compound 85 (peptide)
peptide: Ac-EFCI[Trp(1-Me)]QDWGEHRCES-NH2
modifications: disulfide 3-13
SMILES: CC[C@H](C)[C@@H]1NC(=O)[C@@H](NC(=O)[C@H](Cc2ccccc2)NC(=O)[C@H](CCC(=O)O)NC(C)=O)CSSC[C@@H](C(=O)N[C@@H](CCC(=O)O)C(=O)N[C@@H](CO)C(N)=O)NC(=O)[C@H](CCCNC(=N)N)NC(=O)[C@H](Cc2c[nH]cn2)NC(=O)[C@H](CCC(=O)O)NC(=O)CNC(=O)[C@H](Cc2c[nH]c3ccccc23)NC(=O)[C@H](CC(=O)O)NC(=O)[C@H](CCC(N)=O)NC(=O)[C@H](Cc2cn(C)c3ccccc23)NC1=O
With B3, binding with Human C3 [3] was characterised by a dissociation constant (Kd) of 1.3 nM. In addition, in the test with Human C3 [4], the “IC50[nM], inhibition of hemolysis” value is under 100 nM.
